The values that follow come from patent US9883691B2, “Food and beverage products containing 1,3-propanediol and methods of modifying flavor release using 1,3-propanediol” (Kraft Foods Group Brands LLC, priority 2012, dated 2018).

The conditions of data set [1]: not marked (est); cited from earlier work.
The nature of data set [2]: PTR-MS headspace release at various flavor compound to 1,3-propanediol or PG ratios (Example 2). It counts as physicochemical. Particulars: for release suppressed in the presence of 1,3-propanediol: 10% cut-off for significant difference, relative to PG; for Percent Suppression by 1,3-propanediol: (IZ−IPG)/IPG×100. Put shortly: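 A mixed liquid flavoring was dosed into a beverage at 8 ppm per compound (furfuryl mercaptan 1.6 ppm), with varying amounts of propylene glycol or 1,3-propanediol. Headspace release was measured by PTR-MS. Percent suppression was calculated from peak heights as (IZ−IPG)/IPG×100, relative to PG.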

The nature of data set [3]: PTR-MS headspace release in neat solvent, solvent/solvent experiment (Example 5). It counts as physicochemical. Set-up: key to Release Differences: “Z” indicates that 1,3-propanediol had higher equilibrium maximum (meaning more of the flavor was released in 1,3-propanediol); “P” indicates that propylene glycol had higher equilibrium maximum; “-” indicates no statistical difference (95% significance) between the two samples. Particulars: 1.5 hrs equilibration; for Release Differences: 1,3-propanediol versus propylene glycol as sole solvent, 95% significance.

The mark [4] stands for this setting: ratio 0.005:100, negative = suppressed vs PG.

In the case of `CC=O` [Acetaldehyde], the “logP (o/w)” value in data set [1] is −0.16. For the same compound, the “release suppressed in the presence of 1,3-propanediol” value in data set [2] was “suppressed”. The “effect of 1,3-propanediol on release” value is reported as “significant suppression effect” in data set [2] (flavor/1,3-propanediol ratio of 0.005:100, 0.05:100, and 5:100); “still suppressed” in data set [2] (ratio 0.005:100). Also, the “Percent Suppression by 1,3-propanediol” value in data set [2] (setting [4]) is on record as −22.1%; in data set [2] (ratio 0.05:100), −37.3%; in data set [2] (ratio 5:100), −57.4%; in data set [2] (ratio 15:100), 64.5%. The “Release Differences” value in data set [3] is on record as “Z”. The “release in 1,3-propanediol versus propylene glycol, solvent/solvent” value in data set [3] is given as “released faster (as evidenced by higher headspace concentration) in 1,3-propanediol”.
On to `CCCC(=O)OCC` [Ethyl butyrate], for which the “Percent Suppression by 1,3-propanediol” value in data set [2] (setting [4]) is 3.2%; in data set [2] (ratio 0.05:100) it was 14.9%; in data set [2] (ratio 5:100), −21.8%; in data set [2] (ratio 15:100), −3.3%. Also, in data set [3], the “Release Differences” value was “Z”.
Take `O=Cc1ccccc1` [Benzaldehyde]: the “release suppressed in the presence of 1,3-propanediol” value in data set [2] was “suppressed”. The “effect of 1,3-propanediol on release” value in data set [2] (flavor/1,3-propanediol ratio of 0.05:100 and 5:100) is “significant suppression effect”. For the same compound, the “Percent Suppression by 1,3-propanediol” value was −0.5% in data set [2] (setting [4]), −90.3% in data set [2] (ratio 0.05:100), −40.6% in data set [2] (ratio 5:100) and −16.2% in data set [2] (ratio 15:100). Further, the “Release Differences” value in data set [3] is on record as “P”.
